In assay [1] the test system is lineage I WNV replicon (Rluc/NeoRep). Nature of the assay: Rluc activity in BHK-21 reporting cell line containing WNV Rluc/NeoRep replicon. The assay is classed as cell-based. The settings on record: West Nile virus, 24 h compound treatment, 12-well plates, estimated from Rluc curves, read-out: EC50 (compound concentration required to inhibit 50% of the Rluc activity). Here is the method: (§1) To test the stability of the replicon-containing cell lines, cells at various time points post-selection (p.s.) were examined for viral and Rluc protein expression, and for replicon RNA copy numbers. […] (lower two panels in FIG. 18B). […] (ii) Stable and high levels of Rluc activity were detected from cells collected on days 20, 50, and 80 p.s. (FIG. 18C). For Rluc assay, 10^6 cells were lysed in 500 microliters of lysis buffer; 20 microliters of lysate was measured for Rluc activity according to the manufacturer (Promega) using a Lumat luminometer (EG & G, Berthold, Australia). Approximately 8×10^6 light units were consistently detected from 4×10^4 cells, about 200 light units per cell. (iii) A consistent level of replicon RNA was maintained in cells at 20, 50, and 80 days p.s. (FIG. 18D). Real-time RT-PCR, targeting the viral NS1 region, was used to quantify replicon RNA as previously reported (Shi, P. Y., et al. 2002. Virology 296:219-233; Shi, P. Y., et al. 2002. J. Virol. 76:5847-56; Lo, M. K., et al. 2003. J. Virology 77, 12901-12906). Total RNA extracted from 10^6 cells was eluted in 50 microliters of RNase-free water using RNeasy kits (Qiagen); 5 microliters of RNA was quantified by real-time RT-PCR, using in vitro trancribed RNA as standards. About 10^9 replicon molecules in 10^5 cells was estimated, or about 10^4 replicon RNAs per cell.
To examine whether the reporting cell line can be used as an antiviral assay, three known WNV inhibitors were tested in the cells: 6-azauridine, an inhibitor of orotidine monophosphate decarboxylase, and mycophenolic acid and ribavirin, inhibitors of inosine monophosphate dehydrogenase (De Clercq, E. 1993. Advance Virus Res. 42:1-55; Jordan, I., et al. 2000. J. Infect. Dis. 182:1214-7; Morrey, J., et al. 2002. Antiviral Res. 55:107-116). Ribavirin has also been reported to function as a mutagen, causing lethal levels of mutagenesis within the virus population (Crotty, S., et al. 2000. Nature Med. 6:1375-9). All three compounds were purchased from Sigma (St. Louis, Mo.). Initially, the assay was performed in 12-well plates. […]

Assay [2] concerns lineage I WNV replicon (Rluc/NeoRep) RNA. Nature of the assay: Replicon RNA copy number by real-time RT-PCR in Rluc/NeoRep reporting cell line. The class given is cell-based. The conditions noted are these: West Nile virus, 24 h, read-out: EC50 derived from the replicon RNA copy numbers. Here is the method:
as §1
To verify that the reduction in Rluc activity reflected the compound inhibition of viral RNA replication, RT-PCR was performed. After 24 h of compound treatment, cells from the 12-well plates were assayed for RNA amounts as described above, except that 12 μl from the 50 μl extracted RNA was used in the real-time RT-PCR assay. […] The relative potencies of the three tested compounds are also similar to those observed with the Rluc results, in the decreasing order of mycophenolic acid, 6-azauridine, and ribavirin (compare FIGS. 19A to 19B). […]
For orientation: In antiviral work, replicon cells carry a viral genome segment that copies itself.

The subject of a further assay is WNV. The settings on record: Morrey et al. 2002; read-out: EC50 derived from the standard viral infection assay; cited from earlier work.

Here are results for three compounds from patent US7355033B2, “Screening for West Nile Virus antiviral therapy” (Health Research, Inc., priority 2002, dated 2008).

The structures appear in SMILES notation. Some results are limits rather than exact numbers.

As for `O=c1cnn([C@@H]2O[C@H](CO)[C@@H](O)[C@H]2O)c(=O)[nH]1` [6-azauridine], the EC50 in assay [1] was 11 µM; in assay [2] it was > 300 µM; in the assay on WNV, 6.1 µM.

Consider `COc1c(C)c2c(c(O)c1C/C=C(\C)CCC(=O)O)C(=O)OC2` [mycophenolic acid], for which the EC50 in assay [1] was 5.4 µM; in assay [2] it was ~100 µM; in the assay on WNV, 8.4 µM.

On to `NC(=O)c1ncn([C@@H]2O[C@H](CO)[C@@H](O)[C@H]2O)n1` [ribavirin], for which the EC50 was 140 µM in assay [1], > 300 µM in assay [2] and 178 µM in the assay on WNV.
